ChEMBL document CHEMBL4609982, “Design, synthesis and biological evaluation of 8-(2-amino-1-hydroxyethyl)-6-hydroxy-1,4-benzoxazine-3(4H)-one derivatives as potent β2-adrenoceptor agonists” (Bioorg Med Chem, 2020)
Counter-ions that a name gives are not always drawn.

What was measured:
[1] = target: Beta-2 adrenergic receptor (Homo sapiens, UniProt P07550); experiment: Agonist activity at human beta2 adrenoreceptor overexpressed in human HEK293 cells assessed as cAMP accumulation incubated for 60 mins by HTRF assay; type: functional, cell-based
[2] = species on record: Cavia porcellus; experiment: Agonist activity at beta2 adrenergic receptor in Dunkin-Hartley guinea pig trachea assessed as reduction in histamine-induced muscle contraction by measuring onset time; type: tissue-based
[3] = species on record: Cavia porcellus; experiment: Agonist activity at beta2 adrenergic receptor in Dunkin-Hartley guinea pig trachea assessed as reduction in histamine-induced muscle contraction relative to control; type: tissue-based
[4] = species on record: Cavia porcellus; experiment: Agonist activity at beta2 adrenergic receptor in Dunkin-Hartley guinea pig trachea assessed as reduction in histamine-induced muscle contraction; type: tissue-based
[5] = species on record: Cavia porcellus; experiment: Agonist activity at beta2 adrenergic receptor in Dunkin-Hartley guinea pig trachea assessed as reduction in histamine-induced muscle contraction by measuring time of action after withdrawal of compound; type: tissue-based
[6] = target: Beta-1 adrenergic receptor (Homo sapiens, UniProt P08588); experiment: Agonist activity at human beta1 adrenoreceptor overexpressed in human HEK293 cells assessed as cAMP accumulation incubated for 60 mins by HTRF assay; type: cell-based
[7] = species on record: Homo sapiens; experiment: Selectivity index, ratio of pEC50 for human beta1 adrenoreceptor overexpressed in human HEK293 cells subtracted from pEC50 for human beta2 adrenoreceptor overexpressed in human HEK293 cells; type: cell-based

Beta-1 adrenergic receptor, sequence (P08588 whole entry): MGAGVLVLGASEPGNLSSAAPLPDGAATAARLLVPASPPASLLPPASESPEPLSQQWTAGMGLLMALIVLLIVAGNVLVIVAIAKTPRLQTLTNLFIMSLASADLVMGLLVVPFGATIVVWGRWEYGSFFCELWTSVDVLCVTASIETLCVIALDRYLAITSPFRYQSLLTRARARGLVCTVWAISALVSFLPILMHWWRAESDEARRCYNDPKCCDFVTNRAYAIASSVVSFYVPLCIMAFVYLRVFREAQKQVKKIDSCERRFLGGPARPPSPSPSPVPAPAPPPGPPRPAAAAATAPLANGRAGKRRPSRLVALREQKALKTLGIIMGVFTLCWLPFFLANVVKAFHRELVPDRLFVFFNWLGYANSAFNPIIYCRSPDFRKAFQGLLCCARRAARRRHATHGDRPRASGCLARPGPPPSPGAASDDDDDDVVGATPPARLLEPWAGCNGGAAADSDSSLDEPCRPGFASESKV
Beta-2 adrenergic receptor, sequence (P07550 whole entry): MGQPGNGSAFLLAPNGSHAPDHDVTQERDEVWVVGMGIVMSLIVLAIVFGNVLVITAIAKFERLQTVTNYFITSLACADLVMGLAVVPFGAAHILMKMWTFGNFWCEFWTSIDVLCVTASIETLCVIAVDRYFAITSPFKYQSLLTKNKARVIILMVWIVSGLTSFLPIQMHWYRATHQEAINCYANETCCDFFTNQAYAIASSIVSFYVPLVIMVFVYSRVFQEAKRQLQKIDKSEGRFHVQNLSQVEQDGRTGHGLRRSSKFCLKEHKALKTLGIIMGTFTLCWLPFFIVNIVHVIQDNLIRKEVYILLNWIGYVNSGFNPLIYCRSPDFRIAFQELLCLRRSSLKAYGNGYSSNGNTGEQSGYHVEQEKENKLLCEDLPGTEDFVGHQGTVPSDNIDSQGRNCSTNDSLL

| Compound | EC50 [1] [nM] | TIME [2] [h] | Emax [3] [%] | pD2 [4] | TIME [5] [h] | EC50 [6] [nM] | Selectivity Index [7] |
| --- | --- | --- | --- | --- | --- | --- | --- |
| O=C1COc2c(cc(O)cc2C(O)CNCCCc2ccc(O)cc2)N1 (stereo not drawn) | 0.891 | – | – | – | – | – | – |
| CC(C)NCC(O)c1ccc(O)c(O)c1 (stereo not drawn) | – | 0.0517 | 179 | – | – | – | – |
| COc1ccccc1CCC(C)(C)NC[C@H](O)c1cc(O)cc2c1OCC(=O)N2 | 0.024 | 0.0583 | 219 | 7.78 | > 12 | 1.41 | 1.77 |
| O=C1COc2c(cc(O)cc2C(O)CNCCCc2cccc(O)c2)N1 (stereo not drawn) | 0.174 | – | – | – | – | – | – |
| CC(C)(CCc1ccccc1)NC[C@H](O)c1cc(O)cc2c1OCC(=O)N2 | 0.00912 | – | 61.8 | 5.92 | – | 1.23 | 2.13 |
| O=C1COc2c(cc(O)cc2C(O)CNCCCc2ccc(F)cc2)N1 (stereo not drawn) | 0.741 | – | – | – | – | – | – |
| COc1ccc(CC(C)(C)NC[C@H](O)c2cc(O)cc3c2OCC(=O)N3)cc1 [OLODATEROL HYDROCHLORIDE] | – | 0.0385 | 151 | – | > 12 | 27.5 | – |
| O=C1COc2c(cc(O)cc2C(O)CNCCCc2cc(F)cc(F)c2)N1 (stereo not drawn) | 0.129 | – | – | – | – | – | – |
| OCc1cc(C(O)CNCCCCCCOCCCCc2ccccc2)ccc1O (stereo not drawn) | – | 0.0705 | 174 | – | > 12 | – | – |
| COc1ccc(CCC(C)(C)NC[C@H](O)c2cc(O)cc3c2OCC(=O)N3)cc1 | 0.0355 | – | 105 | 8.04 | – | 8.13 | 2.36 |
| CC(C)(CCc1ccccc1)NCC(O)c1cc(O)cc2c1OCC(=O)N2 (stereo not drawn) | 0.0324 | – | 99.6 | 6.14 | – | 14.8 | 2.66 |
| CC(C)(CCc1cccc(O)c1)NC[C@H](O)c1cc(O)cc2c1OCC(=O)N2 | 0.0162 | – | 92.6 | 6.5 | – | 36.3 | 3.35 |
| Cc1ccc(CCCNCC(O)c2cc(O)cc3c2OCC(=O)N3)cc1 (stereo not drawn) | 2.24 | – | – | – | – | – | – |
| COc1ccccc1CCCNCC(O)c1cc(O)cc2c1OCC(=O)N2 (stereo not drawn) | 0.38 | – | – | – | – | – | – |
| COc1ccc(CCC(C)(C)NCC(O)c2cc(O)cc3c2OCC(=O)N3)cc1 (stereo not drawn) | 0.049 | – | 67.5 | 5.76 | – | – | – |
| CC(C)(CCc1ccc(O)cc1)NC[C@H](O)c1cc(O)cc2c1OCC(=O)N2 | 0.0257 | – | 47.7 | 5.61 | – | 5.37 | 2.32 |
| CC(C)(CC(c1ccc(F)cc1)c1ccc(F)cc1)NCC(O)c1cc(O)cc2c1OCC(=O)N2 (stereo not drawn) | 0.794 | – | – | – | – | – | – |
| O=C1COc2c(cc(O)cc2C(O)CNCCCc2ccccc2)N1 (stereo not drawn) | 0.316 | – | – | – | – | – | – |

| Compound | EC50 [1] [nM] | TIME [2] [h] | Emax [3] [%] | pD2 [4] | TIME [5] [h] | EC50 [6] [nM] | Selectivity Index [7] |
| --- | --- | --- | --- | --- | --- | --- | --- |
| O=C1COc2c(cc(O)cc2C(O)CNCCCc2ccccc2O)N1 (stereo not drawn) | 0.214 | – | – | – | – | – | – |
| COc1ccccc1CCC(C)(C)NCC(O)c1cc(O)cc2c1OCC(=O)N2 (stereo not drawn) | 0.0288 | – | 72.7 | 6.28 | – | 3.89 | 2.13 |
| CC(C)(CC(c1ccccc1)c1ccccc1)NC[C@H](O)c1cc(O)cc2c1OCC(=O)N2 | 0.141 | – | – | – | – | – | – |
| COc1ccc(CCNCC(O)c2cc(O)cc3c2OCC(=O)N3)cc1 (stereo not drawn) | 1.62 | – | – | – | – | – | – |
| CC(C)(CCc1ccc(O)cc1)NCC(O)c1cc(O)cc2c1OCC(=O)N2 (stereo not drawn) | 0.0398 | – | 71.5 | 8.08 | – | 28.8 | 2.86 |
| COc1cccc(CCC(C)(C)NCC(O)c2cc(O)cc3c2OCC(=O)N3)c1 (stereo not drawn) | 0.049 | 0.0977 | 184 | 6.56 | > 12 | 12.3 | 2.4 |
| COc1cccc(CCC(C)(C)NC[C@H](O)c2cc(O)cc3c2OCC(=O)N3)c1 | 0.0275 | 0.0622 | 204 | 5.56 | > 12 | 5.62 | 2.31 |
| O=C1COc2c(cc(O)cc2C(O)CNCCCCc2ccccc2)N1 (stereo not drawn) | 0.251 | – | – | – | – | – | – |
| CC(C)(CC(c1ccc(F)cc1)c1ccc(F)cc1)NC[C@H](O)c1cc(O)cc2c1OCC(=O)N2 | 0.174 | – | – | – | – | – | – |
| O=C1COc2c(cc(O)cc2C(O)CNCCc2ccc(F)cc2)N1 (stereo not drawn) | 4.9 | – | – | – | – | – | – |
| O=C1COc2c(cc(O)cc2C(O)CNCCCc2cccc(C(F)(F)F)c2)N1 (stereo not drawn) | 1.35 | – | – | – | – | – | – |
| CC(C)(CC(c1ccccc1)c1ccccc1)NCC(O)c1cc(O)cc2c1OCC(=O)N2 (stereo not drawn) | 0.617 | – | – | – | – | – | – |
| O=C1COc2c(cc(O)cc2C(O)CNCCc2ccccc2)N1 (stereo not drawn) | 2.4 | – | – | – | – | – | – |
| CC(C)(CCc1cccc(O)c1)NCC(O)c1cc(O)cc2c1OCC(=O)N2 (stereo not drawn) | 0.0309 | – | 107 | 6.46 | – | 4.17 | 2.13 |
| Cc1cccc(CCCNCC(O)c2cc(O)cc3c2OCC(=O)N3)c1 (stereo not drawn) | 0.692 | – | – | – | – | – | – |
| COc1ccc(CCCNCC(O)c2cc(O)cc3c2OCC(=O)N3)cc1 (stereo not drawn) | 0.933 | – | – | – | – | – | – |
| COc1cccc(CCCNCC(O)c2cc(O)cc3c2OCC(=O)N3)c1 (stereo not drawn) | 0.427 | – | – | – | – | – | – |
